In US12702643B2, “Ion-exchange composition with water-soluble mucoadhesive polymers” (Fertin Pharma A/S, priority 2019, dated 2026):

Conditions: increase of nicotine concentration from 100 microgram/mL to 14,000 microgram/mL

CN1CCCC1c1cccnc1 (stereo not shown) [nicotine]
Permeability of nicotine across the buccal mucosa: decrease of about a factor of two
